Laboratory results published in patent US20220105119A1, “DELIVERY OF AEROSOLIZED MICROMOLAR COMPOSITION CONCENTRATIONS” (Amcyte Pharma Inc., priority 2020, published 2022).
“And” between values parts separate entries of the source, which are not always exact repeats. Identical values can stand only once. Like-named read-outs stand apart in the source and are kept apart here.

Assays:
SARS CoV 2 [1] = format: cell-based
[2] = Related substances by HPLC after 1 week at 50° C.; format: physicochemical; details: formulations after 1 week at 50° C., drug substance lot as used
Source text: HPLC method used renders chromatograms like the one depicted in FIG. 1 for drug substance and drug product. […] The rest of the peaks may be attributed to related substances. Related substances are substances structurally similar to the drug substance. Some of them come from synthesis impurities and are not increased during shelf life because they cannot form from degradation of the drug substance. Others are degradation products. […] (an extremely high stress condition for an MDI).

SARS CoV 2 [3] = details: cited from earlier work
[4] = calculated
[5] = system: flaviviruses (yellow fever virus, West Nile virus, dengue virus, Japanese encephalitis virus, tick-borne encephalitis virus); details: other viruses; cited from earlier work
[6] = cited from earlier work; for Maximum Plasma Concentration: single oral dose; for Time elapsed to reach maximum concentration: after ingestion
[7] = in vivo; cited from earlier work
[8] = Ali 2011; cited from earlier work

In the case of Ivermectin, the “IC50 as mass concentration” value (SARS CoV 2 [1]) is reported as 1.7 µg/mL, the “Related substance RRT 1.42” value ([2]; alkaline degradation product) is reported as 2.9 % total HPLC area and the “Related substance RRT 0.39” value [2] is reported as 0.3 % total HPLC area. The “Related substance RRT 0.40” value [2] was 0.3 % total HPLC area, the “Related substance RRT 0.46” value [2] was 0.5 % total HPLC area and the “Related substance RRT 0.78” value [2] was 0.1 % total HPLC area. For the same substance, the “Related substance RRT 1.52” value [2] was 0.7 % total HPLC area, the IC50 (SARS CoV 2 [3]; Vero cells culture, read-out: IC50, SARS CoV 2 replication) was 2000 nM and ~2000 nM and the “reduction in viral RNA in reference to placebo” value (SARS CoV 2 [3]; at 5 μM, 48 hours after one single application) was 5,000 fold. The “viral RNA reduction” value (SARS CoV 2 [3]; at a concentration of (equivalent to ca. 4.4 μg/mL)) was “ca. 5,000 times”, the “concentration in nasal airway surface liquid” value ([4]; 100 μg per nostril in a 50-μL shot, liquid volume 50-375 μL) was 533 µg/mL and the “immediate concentration in saliva” value ([4]; one 50-μL shot containing 100 μg, 0.8 mL saliva) was 125 µg/mL. For the same substance, the “concentration range of antiviral activity” value [5] was 0.003 to 10 µM, the “Maximum Plasma Concentration” value ([6]; 150 μg/kg (fasted), Baraka 1996) was “aprox. 55 ng/mL” and the “Maximum Plasma Concentration” value ([6]; 200 μg/kg (fed), Schulz 2018) was 40.1 ng/mL. For the same substance, the “Maximum Plasma Concentration” value ([6]; 600 μg/kg (children, fed), Schulz 2019) was 66.1 ng/mL, the “Maximum Plasma Concentration” value ([6]; 30 mg (fed), Guzzo 2002) was 260.5 ng/mL and the “Maximum Plasma Concentration” value ([6]; 60 mg (fasted), Guzzo 2002) was 186.2 ng/mL and 165.2 to 186.2 ng/mL. The “Maximum Plasma Concentration” value ([6]; 90 mg (fasted), Guzzo 2002) was 158.1 ng/mL, the “Maximum Plasma Concentration” value ([6]; 120 mg (fasted), Guzzo 2002) was 247.8 ng/mL and the “Time elapsed to reach maximum concentration” value ([6]; adults) was 4 to 5 h. For the same substance, the “Time elapsed to reach maximum concentration” value ([6]; children) was 6 to 7 h, the Oral bioavailability [7] was 40-50% and the forced degradation studies [8] was “susceptible to oxidation and hydrolysis”.
